What follows are compounds tested against T1, Kv7.2/7.3 (Homo sapiens, UniProt O43525+O43526) (assay: Kv7.2/7.3 Activation Assay (Thallium Flux Assay)). Settings: hKV7.2/7.3 cell line; test compound at single concentration of 10 μM; fluorescence at 90 sec normalized to positive control (retigabine, 30 μM).
T1 construct: Kv7.2 tetracycline-induced, Kv7.3 constitutive
Format: cell-based
Summary of the method: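 Single-point activity at 10 μM (0.1% DMSO, HEPES-buffered saline, pH 7.4) was scored from fluorescence at 90 s relative to 30 μM retigabine. Categories were none <0.15, moderate 0.15-0.7 and high >0.7. Thallium influx after stimulus addition was followed with FluxOR II Green dye in hKv7.2/7.3 cells, Kv7.2 expressed under overnight tetracycline (10 ng/mL) induction.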

Kv7.2/7.3 Activity | SMILES
++ (“++” High Activity ≥ 0.7) | Cn1nc(NC(=O)C[C@@H]2CC(F)(F)C2(F)F)c(C2CCC2)c1C(F)(F)c1ccccc1 [Compound 32, (R)-N-(4-cyclobutyl-5-(difluoro(phenyl)methyl)-1-methyl-1H-pyrazol-3-yl)-2-(2,2,3,3-tetrafluorocyclobutyl)acetamide]
+ (“+” Moderate Activity 0.15-0.7) | Cn1nc(NC(=O)OC2CC(F)(F)C2)c(C2CCC2)c1-c1ccc(C(F)(F)F)cc1 [Compound 279, 3,3-difluorocyclobutyl (4-cyclobutyl-1-methyl-5-(4-(trifluoromethyl)phenyl)-1H-pyrazol-3-yl)carbamate]
++ (“++” High Activity ≥ 0.7) | Cn1nc(NC(=O)C[C@@H]2CC(F)(F)C2(F)F)c(C2CCC2)c1-c1cc(F)cc(F)c1 [Compound 256, (R)-N-(4-cyclobutyl-5-(3,5-difluorophenyl)-1-methyl-1H-pyrazol-3-yl)-2-(2,2,3,3-tetrafluorocyclobutyl)acetamide]
− (“−” No Activity < 0.15) | Cn1nc(NC(=O)C[C@@H]2CC(F)(F)C2(F)F)c(C2CCC2)c1-c1ccc(S(C)(=O)=O)cc1 [Compound 53, (R)-N-(4-cyclobutyl-1-methyl-5-(4-(methylsulfonyl)phenyl)-1H-pyrazol-3-yl)-2-(2,2,3,3-tetrafluorocyclobutyl)acetamide]
++ (“++” High Activity ≥ 0.7) | Cn1nc(NC(=O)C[C@@H]2CC(F)(F)C2(F)F)c(C2CCC2)c1C1CCCCC1 [Compound 66, (R)-N-(4-cyclobutyl-5-cyclohexyl-1-methyl-1H-pyrazol-3-yl)-2-(2,2,3,3-tetrafluorocyclobutyl)acetamide]
+ (“+” Moderate Activity 0.15-0.7) | Cn1nc(NC(=O)C2(C)CC(F)(F)C2)c(C2CCC2)c1-c1ccc(Cl)cc1 [Compound 221, N-(5-(4-chlorophenyl)-4-cyclobutyl-1-methyl-1H-pyrazol-3-yl)-3,3-difluoro-1-methylcyclobutane-1-carboxamide]
+ (“+” Moderate Activity 0.15-0.7) | Cn1nc(NC(=O)N[C@@H]2CCC(F)(F)C2)c(C2CCC2)c1-c1ccc(F)cc1 [Compound 238, (R)-1-(4-cyclobutyl-5-(4-fluorophenyl)-1-methyl-1H-pyrazol-3-yl)-3-(3,3-difluorocyclopentyl)urea]
+ (“+” Moderate Activity 0.15-0.7) | Cn1nc(NC(=O)NC2CC(F)(F)C2)c(C2CCC2)c1-c1ccc(C(F)(F)F)cc1 [Compound 277, 1-(4-cyclobutyl-1-methyl-5-(4-(trifluoromethyl)phenyl)-1H-pyrazol-3-yl)-3-(3,3-difluorocyclobutyl)urea]
+ (“+” Moderate Activity 0.15-0.7) | Cn1nc(NC(=O)[C@@H]2CC2(F)F)c(C2CCC2)c1-c1ccc(OC(F)(F)F)cc1 [Compound 174, (S)-N-(4-cyclobutyl-1-methyl-5-(4-(trifluoromethoxy)phenyl)-1H-pyrazol-3-yl)-2,2-difluorocyclopropane-1-carboxamide]
++ (“++” High Activity ≥ 0.7) | Cn1nc(NC(=O)C[C@@H]2CC(F)(F)C2(F)F)c(C2CCC2)c1-c1ccc(OC(F)(F)F)cc1 [Compound 30, (R)-N-(4-cyclobutyl-1-methyl-5-(4-(trifluoromethoxy)phenyl)-1H-pyrazol-3-yl)-2-(2,2,3,3-tetrafluorocyclobutyl)acetamide]
+ (“+” Moderate Activity 0.15-0.7) | Cn1nc(NC(=O)C2CC(F)(F)C2)c(C2CCC2)c1-c1ccc(C(F)(F)F)cc1 [Compound 209, N-(4-cyclobutyl-1-methyl-5-(4-(trifluoromethyl)phenyl)-1H-pyrazol-3-yl)-3,3-difluorocyclobutane-1-carboxamide]
++ (“++” High Activity ≥ 0.7) | Cn1nc(NC(=O)C2CCC2)c(C2CCC2)c1-c1ccc(OC(F)(F)F)cc1 [Compound 190, N-(4-cyclobutyl-1-methyl-5-(4-(trifluoromethoxy)phenyl)-1H-pyrazol-3-yl)cyclobutanecarboxamide]
++ (“++” High Activity ≥ 0.7) | O=C(C[C@@H]1CC(F)(F)C1(F)F)Nc1nn(CCO)c(-c2ccc(F)cc2)c1C1CCC1 [Compound 58, (R)-N-(4-cyclobutyl-5-(4-fluorophenyl)-1-(2-hydroxyethyl)-1H-pyrazol-3-yl)-2-(2,2,3,3-tetrafluorocyclobutyl)acetamide]
++ (“++” High Activity ≥ 0.7) | Cn1nc(NC(=O)C[C@@H]2CC(F)(F)C2(F)F)c(C2CCC2)c1-c1noc2ccccc12 [Compound 18, (R)-N-(5-(benzo[d]isoxazol-3-yl)-4-cyclobutyl-1-methyl-1H-pyrazol-3-yl)-2-(2,2,3,3-tetrafluorocyclobutyl)acetamide]
++ (“++” High Activity ≥ 0.7) | Cn1nc(NC(=O)C[C@H]2CC(F)(F)C2(F)F)c(C2CCC2)c1CCc1ccccc1 [Compound 62, (S)-N-(4-cyclobutyl-1-methyl-5-phenethyl-1H-pyrazol-3-yl)-2-(2,2,3,3-tetrafluorocyclobutyl)acetamide]
++ (“++” High Activity ≥ 0.7) | Cn1nc(NC(=O)CC2CC(F)(F)C2)c(C2CCC2)c1-c1ccc(F)cc1 [Compound 74, N-(4-cyclobutyl-5-(4-fluorophenyl)-1-methyl-1H-pyrazol-3-yl)-2-(3,3-difluorocyclobutyl)acetamide]

Continued, compound first:

SMILES | Kv7.2/7.3 Activity
Cn1nc(NC(=O)[C@@H]2CC2(F)F)c(C2CCC2)c1-c1cccc(F)c1 [Compound 167, (S)-N-(4-cyclobutyl-5-(3-fluorophenyl)-1-methyl-1H-pyrazol-3-yl)-2,2-difluorocyclopropane-1-carboxamide] | + (“+” Moderate Activity 0.15-0.7)
Cn1nc(NC(=O)OCC(F)F)c(C2CCC2)c1C1COC1 [Compound 280, 2,2-difluoro-213-ethyl (4-cyclobutyl-1-methyl-5-(oxetan-3-yl)-1H-pyrazol-3-yl)carbamate] | − (“−” No Activity < 0.15)
Cn1nc(NC(=O)C2CC(F)(F)C2)c(C2CCC2)c1C1CCC(F)(F)CC1 [Compound 289, N-(4-cyclobutyl-5-(4,4-difluorocyclohexyl)-1-methyl-1H-pyrazol-3-yl)-3,3-difluorocyclobutane-1-carboxamide] | ++ (“++” High Activity ≥ 0.7)
Cn1nc(NC(=O)[C@H]2CC2(F)F)c(C2CCC2)c1C1CC(C)(C)C1 [Compound 148, (R)-N-(4-cyclobutyl-5-(3,3-dimethylcyclobutyl)-1-methyl-1H-pyrazol-3-yl)-2,2-difluorocyclopropane-1-carboxamide] | ++ (“++” High Activity ≥ 0.7)
Cn1nc(NC(=O)C2CC(F)(F)C2)c(C2(C)CCC2)c1-c1ccc(F)cc1 [Compound 286, 3,3-difluoro-N-(5-(4-fluorophenyl)-1-methyl-4-(1-methylcyclobutyl)-1H-pyrazol-3-yl)cyclobutane-1-carboxamide] | ++ (“++” High Activity ≥ 0.7)
Cn1nc(NC(=O)OC2CC(F)(F)C2)c(C2CCC2)c1C1CCC(F)(F)CC1 [Compound 292, 3,3-difluorocyclobutyl (4-cyclobutyl-5-(4,4-difluorocyclohexyl)-1-methyl-1H-pyrazol-3-yl)carbamate] | ++ (“++” High Activity ≥ 0.7)
Cn1nc(NC(=O)CC(C)(C)C(F)(F)F)c(C2CCC2)c1-c1cnc(C(F)(F)F)s1 [Compound 49, N-(4-cyclobutyl-1-methyl-5-(2-(trifluoromethyl)thiazol-5-yl)-1H-pyrazol-3-yl)-4,4,4-trifluoro-3,3-dimethylbutanamide] | + (“+” Moderate Activity 0.15-0.7)
Cn1nc(NC(=O)C2CC(F)(F)C2)c(C2CCC2)c1-c1cnc(C(F)(F)F)s1 [Compound 195, N-(4-cyclobutyl-1-methyl-5-(2-(trifluoromethyl)thiazol-5-yl)-1H-pyrazol-3-yl)-3,3-difluorocyclobutane-1-carboxamide] | + (“+” Moderate Activity 0.15-0.7)
Cn1nc(NC(=O)NCC2CC(F)(F)C2)c(C2CCC2)c1C1CC(F)(F)C1 [Compound 297, 1-(4-cyclobutyl-5-(3,3-difluorocyclobutyl)-1-methyl-1H-pyrazol-3-yl)-3-((3,3-difluorocyclobutyl)methyl)urea] | ++ (“++” High Activity ≥ 0.7)
CO[C@@H](CC(=O)Nc1nn(C)c(-c2ccc(Cl)s2)c1C1CCC1)C(F)(F)F [Compound 233, (S)-N-(5-(5-chlorothiophen-2-yl)-4-cyclobutyl-1-methyl-1H-pyrazol-3-yl)-4,4,4-trifluoro-3-methoxybutanamide] | ++ (“++” High Activity ≥ 0.7)
Cn1nc(NC(=O)C2(O)CC2)c(C2CCC2)c1-c1ccc(F)cc1 [Compound 130, N-(4-cyclobutyl-5-(4-fluorophenyl)-1-methyl-1H-pyrazol-3-yl)-1-hydroxycyclopropane-1-carboxamide] | − (“−” No Activity < 0.15)
Cn1nc(NC(=O)C2(C)CC(F)(F)C2)c(C2CCC2)c1-c1ccc(F)c(F)c1 [Compound 201, N-(4-cyclobutyl-5-(3,4-difluorophenyl)-1-methyl-1H-pyrazol-3-yl)-3,3-difluoro-1-methylcyclobutane-1-carboxamide] | ++ (“++” High Activity ≥ 0.7)
Cn1nc(NC(=O)CC2(C(F)F)CC2)c(C2CCC2)c1-c1cc(F)cc(F)c1 [Compound 259, N-(4-cyclobutyl-5-(3,5-difluorophenyl)-1-methyl-1H-pyrazol-3-yl)-2-(1-(difluoromethyl)cyclopropyl)acetamide] | ++ (“++” High Activity ≥ 0.7)
CCn1nc(NC(=O)Cc2cc(F)cc(F)c2)c(C2CC2)c1C [Compound 3, N-(4-cyclopropyl-1-ethyl-5-methyl-1H-pyrazol-3-yl)-2-(3,5-difluorophenyl)acetamide] | ++ (“++” High Activity ≥ 0.7)
